In patent US10981932B2, “Macrocyclic indole derivatives” (Bayer Aktiengesellschaft, priority 2016, dated 2021):
Counter-ions that a name gives are not always drawn. Like-named read-outs stand apart in the source and are kept apart here.

Assays:
MCL-1 = MCL-1 (Homo sapiens, UniProt Q07820); test: Protein-protein interaction assay MCL-1/Noxa BH3 peptide (MCL-1 assay), TR-FRET; type: binding; details: MBP-MCL-1 / Noxa BH3-derived peptide, median
Procedure: Protein-Protein Interaction Assay: MCL-1/Noxa BH3 Peptide (MCL-1 Assay) […]
In the assay 11 different concentrations of each compound (0.1 nM, 0.33 nM, 1.1 nM, 3.8 nM, 13 nM, 44 nM, 0.15 μM, 0.51 μM, 1.7 μM, 5.9 μM and 20 μM) were typically measured as duplicates in the same microtiter plate. For that, 100-fold concentrated DMSO solutions were prepared by serial dilutions (1:3.4) of a 2 mM stock solution in a clear, 384-well microtiter plate (Greiner Bio-One, Frickenhausen, Germany). From there, 50 ni were transferred in a dark test plate (Greiner Bio-One, Frickenhausen, Germany). The assay was initiated by addition of 2 μl of a 2.5-fold concentrated MBP-MCL-1 solution (usually for a 1 nM end concentration in 5 μl reaction volume) in aqueous assay buffer [50 mM Tris/HCl pH 7, 100 mM sodium chloride (NaCl), 50 mM potassium fluoride (KF), 0.005% Tween-20, 2 mM DTT, 0.1% bovine gamma globulin (BGG)] to the compounds in the assay plate. This was followed by a 10-minute incubation step at 22° C. for pre-equilibration of the putative complex between MBP-MCL-1 and the compounds. After that.
The mixture was incubated in the dark for one hour at 22° C. and then overnight at 4° C. The formation of MCL-1/Noxa complexes was determined by measuring the resonance energy transfer of the anti-MBP- Eu-cryptate antibody to the streptavidin-XL665 present in the reaction. For that purpose, the fluorescence emission at 620 nm and 665 nm after excitation at 330-350 nm was measured in a TR-FRET measuring instrument, for instance a Rubystar or a Pherastar (both from BMG Lab Technologies, Offenburg, Germany) or a Viewlux (Perkin-Elmer). The ratio of the emission at 665 nm and at 622 nm was used as indicator of the amount of MCL-1/NOXA complexes present.
The resulting data (ratio) were normalized, taking 0% inhibition as the mean value of control measurements (usually 32 data points) where all reagents were included. In this case 50 nl DMSO were used instead of compounds. A 100% inhibition corresponded to the mean value of control measurements (usually 32 data points) where all reagents except MCL-1 were included. IC50 values were determined by regression analysis based on a 4 parameter equation (minimum, maximum, IC50, Hill; Y=Max+(Min−Max)/(1+(X/IC50)^Hill) using the Screener Software (Genedata).

SUDHL5 [1] = test: Induction of caspase-3/7 activity (Caspase-Glo 3/7), SUDHL5; type: cell-based; details: caspase-3/7 induction, SUDHL5 cells, 3 h treatment, median
Procedure: (§1) Induction of Caspase-317 Activity Upon Treatment of Cells with Selected Compounds
(§2) The BH3-domain of MCL-1 sequesters pro-apoptotic proteins, thereby inhibiting apoptosis. In contrast, MCL-1 inhibitors are expected to antagonize this effect leading to an increase in apoptosis, which can be determined by measuring the activity of caspase-3/7.
(§3) The activity of caspase-3/7 was determined in DLBCL (Diffuse large B-cell lymphoma) cell lines (SUDHL5 and SUDHL10) upon treatment with different compounds, using the Caspase-Glo® 3/7 reagent from Promega (G8092).
(§4) Rim wells were excluded. The cells were incubated for 3 h hours in a humidified incubator at 37° C.
(§5) For the evaluation of the results, the background measured with “medium-only” was subtracted from all other values. […] The Bella DRC Master Sheet was used to calculate EC50s, with fixed C0=1 and CI=plateaulmax induction for the reference compound.

SUDHL10 [2] = test: Induction of caspase-3/7 activity (Caspase-Glo 3/7), SUDHL10; type: cell-based; details: caspase-3/7 induction, SUDHL10 cells, 3 h treatment, median
Procedure: as §1, §2, §3, §4, §5

SUDHL5 [3] = test: Anti-proliferative effect (CellTiter-Glo, 72 h), SUDHL5; type: cell-based; details: SUDHL5 cells, antiproliferation, median, read-out: Antiproli SUDHL5 [M] (median)
Procedure: (§6) Assessment of the Anti-Proliferative Effect of Compounds in Different Cell Lines
(§7) The impact of compounds on the proliferation of different cell lines was assessed using the CellTiter-Glo® Luminescent Cell Viability reagent from Promega (G7573). Of note, SUDHL10 and SUDHL5 (DLBCL), NCI-H929 (Multiple Myeloma), A2780 (ovarian carcinoma) as well as MV-4-11(AML) cells are sensitive to MCL-1 inhibition.
(§8) In parallel, cells were plated in a reference (day 0) plate for time zero determination.
(§9) Rim wells were excluded. The cells were incubated for 72 h hours in a humidified incubator at 37° C. The day 0 plate was measured by adding 30 μl/well of CTG solution (CellTiter-Glo® Luminescent Cell Viability reagent, Promega G7573) to time zero wells in the reference plate followed by a 10 minutes incubation and luminescence reading at 0.1 ms, using the PHERAstar FS microplate reader (BMG Labtech).
(§10) After 72 h incubation, the treated plates were measured in the same way as the day 0 plate mentioned above.

A2780 = test: Anti-proliferative effect (CellTiter-Glo, 72 h), A2780; type: cell-based; details: A2780 cells, median, read-out: IC50 antiproliferation assay A2780 [M] (median)
Procedure: as §6, §7, §8, §9, §10

SUDHL5 [4] = test: Induction of cytotoxicity (CellTiter-Glo, 5 h), SUDHL5
SUDHL10 [5] = test: Induction of cytotoxicity (CellTiter-Glo, 5 h), SUDHL10
[6] = Homo sapiens, SU-DHL-5, 72 h, 72 h incubation
[7] = Homo sapiens, SU-DHL-5, 5 h, read-out: Cytotox SUDHL5 [M] (median), SUDHL5 cells, cytotoxicity induction, CellTiter-Glo, 5 h incubation, median
[8] = Homo sapiens, SU-DHL10, 5 h, read-out: Cytotox SUDHL10 [M] (median), SUDHL10 cells, cytotoxicity induction, CellTiter-Glo, 5 h incubation, median
[9] = Homo sapiens, SU-DHL-5, 72 h, 72 h
[10] = Homo sapiens, SU-DHL-5, 5 h, read-out: Cytotox SUDHL5 [M] (median), SUDHL5 cells, cytotoxicity induction, CellTiter-Glo, 5 h, median
[11] = Homo sapiens, SU-DHL10, 5 h, read-out: Cytotox SUDHL10 [M] (median), SUDHL10 cells, cytotoxicity induction, CellTiter-Glo, 5 h, median
[12] = read-out: Cytotox SUDHL5 [M] (median), SUDHL5 cells, cytotoxicity induction, CellTiter-Glo, 5 h incubation, median
[13] = read-out: Cytotox SUDHL10 [M] (median), SUDHL10 cells, cytotoxicity induction, CellTiter-Glo, 5 h incubation, median

Sequence of MCL-1 (Q07820 whole entry): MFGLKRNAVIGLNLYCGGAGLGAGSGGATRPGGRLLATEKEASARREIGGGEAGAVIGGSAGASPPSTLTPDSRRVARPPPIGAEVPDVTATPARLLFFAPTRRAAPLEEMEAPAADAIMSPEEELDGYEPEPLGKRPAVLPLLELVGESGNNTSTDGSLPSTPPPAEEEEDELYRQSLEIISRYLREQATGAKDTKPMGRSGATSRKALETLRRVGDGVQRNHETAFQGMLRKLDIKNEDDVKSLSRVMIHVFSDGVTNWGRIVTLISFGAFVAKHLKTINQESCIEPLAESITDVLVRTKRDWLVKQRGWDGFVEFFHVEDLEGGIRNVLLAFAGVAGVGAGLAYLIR

| SMILES | IC50 (MCL-1) [µM] | EC50 (SUDHL5 [1]; Homo sapiens, SU-DHL-5, 3 h) [µM] | EC50 (SUDHL10 [2]; Homo sapiens, SU-DHL10, 3 h) [µM] | IC50 (SUDHL5 [3]; [6]) [M] | IC50 (A2780; Homo sapiens, A2780, 72 h) [M] | IC50 (SUDHL5 [4]; [7]) [M] | IC50 (SUDHL10 [5]; [8]) [M] | IC50 (SUDHL5 [3]; [9]) [M] | IC50 (SUDHL5 [4]; [10]) [M] | IC50 (SUDHL10 [5]; [11]) [M] | EC50 (SUDHL5 [1]) [µM] | EC50 (SUDHL10 [2]) [µM] | IC50 (SUDHL5 [3]; 72 h incubation) [M] | IC50 (A2780) [M] | IC50 (SUDHL5 [4]; [12]) [M] | IC50 (SUDHL10 [5]; [13]) [M] |
| --- | --- | --- | --- | --- | --- | --- | --- | --- | --- | --- | --- | --- | --- | --- | --- | --- |
| COCc1nn(C)c2c1-c1cccc3c(CCCOc4cccc5ccccc45)c(C(=O)O)n(c13)CCCCCOC2 (racemic) [Example 177, (rac)-3-(methoxymethyl)-1-methyl-7-[3-(naphthalen-1-yloxy)propyl]-1,11,12,13,14,16-hexahydro-10H-pyrazolo[3′,4′:3,4][1,7]oxazacyclododecino[5,6,7-hi]indole-8-carboxylic Acid] | 0.0107 | 23.3 | > 33 | > 3.3e-05 | > 3.3e-05 | 2.14e-05 | > 3.3e-05 |  |  |  |  |  |  |  |  |  |
| Cn1nc(C(F)(F)F)c2c1COCCCCn1c(C(=O)O)c(CCCOc3cccc4ccccc34)c3cccc-2c31 (racemic) [Example 216, (rac)-1-methyl-7-[3-(naphthalen-1-yloxy)propyl]-3-(trifluoromethyl)-1,10,11,12,13,15-hexahydropyrazolo[4′,3′:9,10][1,6]oxazacycloundecino[8,7,6-hi]indole-8-carboxylic Acid] | 0.0058 | 10 | 28.7 | 1.27e-05 | 2.02e-05 | 1.04e-05 | 3.11e-05 |  |  |  |  |  |  |  |  |  |
| Cc1c2c(nn1CCN(C)C)COCCCCn1c(C(=O)O)c(CCCOc3cccc4ccccc34)c3cccc-2c31 (racemic) [Example 243, (rac)-2-[2-(dimethylamino)ethyl]-3-methy-7-[3-(naphthalen-1-yloxy)propyl]-2,10,11,12,13,15-hexahydropyrazolo[4′,3′:9,10][1,6]oxazacycloundecino[8,7,6-hi]indole-8-carboxylic Acid Trifluoroacetic Acid Salt] | 0.00778 | 7.09 | 16.5 | 1.11e-05 | 1.43e-05 | 6.44e-06 | 1.46e-05 |  |  |  |  |  |  |  |  |  |
| CCc1nn(C)c2c1-c1c(C)ccc3c(C(C)CCOc4cccc5ccccc45)c(C(=O)O)n(c13)CCCCOC2 (racemic) [Example 271, 3-ethyl-1,4-dimethyl-7-[4-(naphthalen-1-yloxy)butan-2-yl]-1,10,11,12,13,15-hexahydropyrazolo[4′,3′:9,10][1,6]oxazacycloundecino[8,7,6-hi]indole-8-carboxylic Acid] | 0.0306 | > 33 | > 33 | 1.27e-05 | 1.83e-05 | 3.28e-05 | > 3.3e-05 |  |  |  |  |  |  |  |  |  |
| CN1CCN(Cc2c3c(nn2C)COC/C=C\Cn2c(C(=O)O)c(CCCOc4cccc5ccccc45)c4cccc-3c42)CC1 (racemic) [Example 358, (rac)-(11 Z)-2-methyl-3-[(4-methylpiperazin-1-yl)methyl]-7-[3-(naphthalen-1-yloxy)propyl]-2,10,13,15-tetrahydropyrazolo[4′,3′:9,10][1,6]oxazacycloundecino[8,7,6-hi]indole-8-carboxylic Acid] | 0.0173 | > 33 | > 33 |  | 1.2e-05 |  |  | 2.06e-05 | > 3.3e-05 | > 3.3e-05 |  |  |  |  |  |  |
| Cc1ccc2c(C(C)CCOc3cccc4ccccc34)c(C(=O)O)n3c2c1-c1c(nn(C)c1C)COCCCC3 (racemic) [Example 362, 11,12,13-trimethyl-1-(4-(naphthalen-1-yloxy)butan-2-yl)-4,5,6,7,9,11-hexahydropyrazolo[4′,3′:9,10][1,6]oxaazacycloundecino[8,7,6-hi]indole-2-carboxylic Acid (Mixture of Stereoisomers)] | 0.0187 | 26.2 | > 33 |  | 1.41e-05 |  |  | 1.27e-05 | 2.72e-05 | > 3.3e-05 |  |  |  |  |  |  |
| COc1c2c(nn1C)COCCCCn1c(C(=O)O)c(CCCOc3cccc4ccccc34)c3cccc-2c31 (single isomer, unassigned) [Example 209, 3-methoxy-2-methyl-7-[3-(naphthalen-1-yloxy)propyl]-2,10,11,12,13,15-hexahydropyrazolo[4′,3′:9,10][1,6]oxazacycloundecino[8,7,6-hi]indole-8-carboxylate] | 0.025 |  |  |  |  |  |  |  |  |  | > 33 | > 33 | 1.58e-05 | 1.58e-05 | > 3.3e-05 | > 3.3e-05 |
| CCc1nn(C)c2c1-c1c(C)ccc3c(C(C)CCOc4cccc5cc(F)ccc45)c(C(=O)O)n(c13)CCCCOC2 (single isomer, unassigned) [Example 262, 3-ethyl-7-{4-[(6-fluoronaphthalen-1-yl)oxy]butan-2-yl}-1,4-dimethyl-1,10,11,12,13,15-hexahydropyrazolo[4′,3′:9,10][1,6]oxazacycloundecino[8,7,6-hi]indole-8-carboxylic Acid] | 0.0388 |  |  |  |  |  |  |  |  |  | 22.6 | > 33 | 4.2e-06 | 7.54e-06 | 1.67e-05 | 2.15e-05 |
| CCc1nn(C)c2c1-c1c(C)ccc3c(C(C)CCOc4cccc5cc(F)ccc45)c(C(=O)O)n(c13)CCCCOC2 (single isomer, unassigned) [Example 263, 3-ethyl-7-{4-[(6-fluoronaphthalen-1-yl)oxy]butan-2-yl}-1,4-dimethyl-1,10,11,12,13,15-hexahydropyrazolo[4′,3′:9,10][1,6]oxazacycloundecino[8,7,6-hi]indole-8-carboxylic Acid] | 0.926 |  |  |  |  |  |  |  |  |  | > 33 | > 33 | 4.61e-06 | 1.01e-05 | > 3.3e-05 | 2.79e-05 |
